Assay [1] concerns the target T1, recombinant N-terminal GST-tagged human Rho kinase 1 (ROCK1, amino acids 1-535) (Homo sapiens, UniProt Q13464).
T1 construct: ROCK1, amino acids 1-535, Invitrogen Inc., cat. #PV-3691; GST (N); purchased Invitrogen Inc. PV-3691
Briefly: In vitro Rho kinase assay (luciferase-based ATP consumption), ROCK1. It is filed as biochemical. Here is the method:
(§1) Rho kinase biochemical assays described below depend on firefly luciferase-based, indirect measurement of total ATP consumption by the kinase following incubation with substrate and ATP. 25 μl of Rho kinase assay buffer (20 mM Tris-HCL [pH 7.5], 1 mM MgCl2, 0.4 mM CaCl2, 0.15 mM EGTA, 0.1 mg/ml bovine serum albumin) containing 0.82 μg/ml of recombinant N-terminal GST-tagged human Rho kinase 1 (ROCK1, amino acids 1-535, Invitrogen Inc., cat. #PV-3691) or recombinant N-terminal GST-tagged human Rho kinase 2 (ROCK2, amino acids 1-552, Invitrogen Inc., cat #PV3759), 100 μg/ml S6 peptide substrate (related to amino acids 218-249 of the human 40S ribosomal protein S6, and suitable for ROCK1 or ROCK2, e.g. Upstate/Millipore Inc., cat #12-420), and 3 µM ATP are dispensed to wells of a 384 multi-well opaque plate. The plate is centrifuged for 30 seconds at approximately 200×g. 240 nl of test compound in DMSO is dispensed to each well by passive pin transfer. The lag phase of this in vitro kinase reaction permits addition of compounds soon after the reaction initiates. The reaction is allowed to incubate at 30° C. for 2 hours. The assay plates are sealed and maintained in a humidified environment. After 2 hours, 25 μl of easyLite protein kinase assay reagent (Perkin-Elmer, Inc.) is dispensed. After an additional 10 minute incubation at room temperature (about 22° C.), luminescence activity is measured on a Molecular Devices Analyst multi-mode plate reader or other suitable plate reader. Kinase inhibition results in less ATP consumption, and therefore increased luminescence signal. Negative control activity is measured with DMSO lacking any test compound. The positive control is 2-methyl-1-(4-methylisoquinolin-5-ylsulfonyl)perhydro-1,4-diazepine hydrochloride (aka H-1152P, HCl salt). Efficacy is measured as a percentage of positive control activity. […] In some cases, kinase reactions and compound testing are performed in 1536 multi-well plates under similar conditions, with assay volumes appropriately scaled. The designated NT means the cited example was not tested.

Assay [2] has as its target T2, recombinant N-terminal GST-tagged human Rho kinase 2 (ROCK2, amino acids 1-552) (Homo sapiens, UniProt O75116).
T2 construct: ROCK2, amino acids 1-552, Invitrogen Inc., cat #PV3759; GST (N); purchased Invitrogen Inc. PV3759
Put plainly: In vitro Rho kinase assay (luciferase-based ATP consumption), ROCK2. It is filed as biochemical. Here is the method: as §1

SMILES strings stand for the structures. pIC50: −log10 of the molar value.

T2 sequence (O75116 1-552): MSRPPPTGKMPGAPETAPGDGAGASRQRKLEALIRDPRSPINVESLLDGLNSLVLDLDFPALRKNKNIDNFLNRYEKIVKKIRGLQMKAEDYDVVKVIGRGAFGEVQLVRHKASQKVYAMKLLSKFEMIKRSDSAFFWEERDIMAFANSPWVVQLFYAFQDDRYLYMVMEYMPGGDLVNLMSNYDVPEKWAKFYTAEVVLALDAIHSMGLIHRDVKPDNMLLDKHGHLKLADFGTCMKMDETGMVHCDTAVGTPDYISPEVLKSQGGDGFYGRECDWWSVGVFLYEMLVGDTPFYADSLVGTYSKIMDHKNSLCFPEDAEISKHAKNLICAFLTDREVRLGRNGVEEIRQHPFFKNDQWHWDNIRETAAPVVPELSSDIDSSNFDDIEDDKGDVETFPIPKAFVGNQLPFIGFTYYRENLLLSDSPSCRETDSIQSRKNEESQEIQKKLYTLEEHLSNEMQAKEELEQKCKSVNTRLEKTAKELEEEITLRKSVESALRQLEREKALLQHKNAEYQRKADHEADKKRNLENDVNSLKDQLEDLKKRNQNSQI
T1 sequence (Q13464 1-535): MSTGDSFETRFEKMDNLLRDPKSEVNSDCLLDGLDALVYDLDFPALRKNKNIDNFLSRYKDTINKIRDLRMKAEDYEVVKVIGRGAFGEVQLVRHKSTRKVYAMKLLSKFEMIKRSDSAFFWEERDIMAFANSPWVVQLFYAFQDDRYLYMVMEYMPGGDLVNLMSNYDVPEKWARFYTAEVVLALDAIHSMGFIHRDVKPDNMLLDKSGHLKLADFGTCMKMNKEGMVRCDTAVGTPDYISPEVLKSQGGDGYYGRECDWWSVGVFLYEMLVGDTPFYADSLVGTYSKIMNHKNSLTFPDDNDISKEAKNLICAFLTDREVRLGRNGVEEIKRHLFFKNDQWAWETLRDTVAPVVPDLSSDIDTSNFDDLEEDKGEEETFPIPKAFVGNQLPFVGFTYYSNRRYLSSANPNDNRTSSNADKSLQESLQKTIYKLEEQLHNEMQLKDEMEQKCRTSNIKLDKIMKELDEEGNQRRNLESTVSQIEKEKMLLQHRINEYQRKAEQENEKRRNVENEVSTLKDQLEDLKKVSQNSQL

Turning to `O=C(NCc1ncc(-c2ccncc2)s1)c1cccs1` [Example 1, N-((5-(pyridin-4-yl)thiazol-2-yl)methyl)thiophene-2-carboxamide], the negative-log IC50 (pIC50) in assay [1] and in assay [2] was under 5.30 each time. As for `O=C(NCc1nc(-c2ccncc2)no1)c1cccs1` [Example 2, N-((3-(pyridin-4-yl)-1,2,4-oxadiazol-5-yl)methyl)thiophene-2-carboxamide], the negative-log IC50 (pIC50) in assay [1] and in assay [2] was under 5.30 throughout. Regarding `COc1cccc(C(=O)NCc2nc(-c3ccncc3)no2)c1` [Example 3, 3-methoxy-N-((3-(pyridin-4-yl)-1,2,4-oxadiazol-5-yl)methyl)benzamide], the negative-log IC50 (pIC50) in assay [1] and in assay [2] was under 5.30 throughout. As for `COc1ccc(C(=O)NCc2nc(-c3ccncc3)no2)cc1` [Example 4, 4-methoxy-N-((3-(pyridin-4-yl)-1,2,4-oxadiazol-5-yl)methyl)benzamide], the pIC50 in assay [1] and in assay [2] was under 5.30 in each case. Turning to `O=C(NCc1nc(-c2ccncc2)c[nH]1)c1cccs1` [Example 5, N-((4-(pyridin-4-yl)-1H-imidazol-2-yl)methyl)thiophene-2-carboxamide], the pIC50 in assay [1] and in assay [2] was over 5.30 throughout. `O=C(NCc1nc(-c2ccncc2)co1)c1ccc(O)cc1O` [Example 8, 2,4-dihydroxy-N-((4-(pyridin-4-yl)oxazol-2-yl)methyl)benzamide]: the pIC50 in assay [1] and in assay [2] was over 5.30 each time. Turning to `O=C(NCc1cc(-c2ccncc2)n[nH]1)c1ccc(O)cc1O` [Example 9, 2,4-dihydroxy-N-((3-(pyridin-4-yl)-1H-pyrazol-5-yl)methyl)benzamide], the negative-log IC50 (pIC50) in assay [1] and in assay [2] was over 5.30 throughout. Turning to `Cc1cccc(C(=O)NCc2cc(-c3ccncc3)n[nH]2)c1O` [Example 10, 2-hydroxy-3-methyl-N-((3-(pyridin-4-yl)-1H-pyrazol-5-yl)methyl)benzamide], the negative-log IC50 (pIC50) in assay [1] and in assay [2] was over 5.30 each time.

With `NC(=O)c1cc(-c2ccncc2)n[nH]1` [Example 11, 3-(pyridin-4-yl)-1H-pyrazole-5-carboxamide], the pIC50 in assay [1] and in assay [2] was under 5.30 throughout.

Regarding `O=C(NCc1c[nH]c(-c2ccncc2)n1)c1ccc(O)cc1O` [Example 12, 2,4-dihydroxy-N-((2-(pyridin-4-yl)-1H-imidazol-4-yl)methyl)benzamide], the pIC50 in assay [1] and in assay [2] was over 5.30 throughout. Regarding `Cc1cccc(C(=O)NCc2c[nH]c(-c3ccncc3)n2)c1O` [Example 13, 2-hydroxy-3-methyl-N-((2-(pyridin-4-yl)-1H-imidazol-4-yl)methyl)benzamide], the pIC50 in assay [1] and in assay [2] was under 5.30 each time.

Take `O=C(NCc1c[nH]c(-c2ccncc2)n1)c1cccs1` [Example 14]: the negative logarithm of the IC50 (pIC50) in assay [1] and in assay [2] was under 5.30 in each case. Turning to `O=C(NCc1nc(-c2ccncc2)n[nH]1)c1cccs1` [Example 16, N-((3-(pyridin-4-yl)-1H-1,2,4-triazol-5-yl)methyl)thiophene-2-carboxamide], the pIC50 in assay [1] and in assay [2] was over 5.30 in each case. `O=C(NCc1nc(-c2ccncc2)n[nH]1)c1ccsc1` [Example 17, N-((3-(pyridin-4-yl)-1H-1,2,4-triazol-5-yl)methyl)thiophene-3-carboxamide]: the pIC50 in assay [1] and in assay [2] was over 5.30 throughout. For the compound `COc1cccc(C(=O)NCc2nc(-c3ccncc3)n[nH]2)c1` [Example 18, 3-methoxy-N-((3-(pyridin-4-yl)-1H-1,2,4-triazol-5-yl)methyl)benzamide], the negative-log IC50 (pIC50) in assay [1] and in assay [2] was under 5.30 throughout. Consider `COc1ccc(C(=O)NCc2nc(-c3ccncc3)n[nH]2)cc1` [Example 19, 4-methoxy-N-((3-(pyridin-4-yl)-1H-1,2,4-triazol-5-yl)methyl)benzamide], for which the pIC50 in assay [1] and in assay [2] was over 5.30 each time.

Consider `O=C(NCc1nc(-c2ccncc2)n[nH]1)c1nccs1` [Example 20, N-((3-(pyridin-4-yl)-1H-1,2,4-triazol-5-yl)methyl) thiazole-2-carboxamide], for which the pIC50 in assay [1] and in assay [2] was over 5.30 in each case. As to `CS(=O)(=O)Nc1cccc(C(=O)NCc2nc(-c3ccncc3)n[nH]2)c1` [Example 21, 3-(methylsulfonamido)-N-((3-(pyridin-4-yl)-1H-1,2,4-triazol-5-yl)methyl)benzamide], the negative logarithm of the IC50 (pIC50) in assay [1] and in assay [2] was under 5.30 throughout. For `COc1cccc(O)c1C(=O)NCc1nc(-c2ccncc2)n[nH]1` [Example 23, 2-hydroxy-6-methoxy-N-((3-(pyridin-4-yl)-1H-1,2,4-triazol-5-yl)methyl)benzamide], the pIC50 in assay [1] and in assay [2] was over 5.30 each time. In the case of `COc1ccc(C(=O)NCc2nc(-c3ccncc3)n[nH]2)c(O)c1` [Example 24, 2-hydroxy-4-methoxy-N-((3-(pyridin-4-yl)-1H-1,2,4-triazol-5-yl)methyl)benzamide], the pIC50 in assay [1] and in assay [2] was over 5.30 throughout.

`O=C(NCc1nc(-c2ccncc2)n[nH]1)c1ccccc1O` [Example 25, 2-hydroxy-N-((3-(pyridin-4-yl)-1H-1,2,4-triazol-5-yl)methyl)benzamide]: the negative logarithm of the IC50 (pIC50) in assay [1] and in assay [2] was over 5.30 each time. On to `O=C(NCc1nc(-c2ccncc2)n[nH]1)c1cccc(Cl)c1O` [Example 26, 3-chloro-2-hydroxy-N-((3-(pyridin-4-yl)-1H-1,2,4-triazol-5-yl)methyl)benzamide], for which the negative-log IC50 (pIC50) in assay [1] and in assay [2] was over 5.30 throughout. Regarding `Cc1ccc(C(=O)NCc2nc(-c3ccncc3)n[nH]2)c(O)c1` [Example 27, 2-hydroxy-4-methyl-N-((3-(pyridin-4-yl)-1H-1,2,4-triazol-5-yl)methyl) benzamide], the negative-log IC50 (pIC50) in assay [1] and in assay [2] was over 5.30 in each case.

As for `O=C(NCc1nc(-c2ccncc2)n[nH]1)c1ccc(O)cc1` [Example 28, 4-hydroxy-N-((3-(pyridin-4-yl)-1H-1,2,4-triazol-5-yl)methyl)benzamide], the pIC50 in assay [1] and in assay [2] was over 5.30 in each case. As to `CS(=O)(=O)Nc1ccccc1C(=O)NCc1nc(-c2ccncc2)n[nH]1` [Example 29, 2-(Methylsulfonamido)-N-((3-(pyridin-4-yl)-1H-1,2,4-triazol-5-yl)methyl)benzamide], the negative-log IC50 (pIC50) in assay [1] and in assay [2] was under 5.30 each time. As to `COC(=O)c1ccc(C(=O)NCc2nc(-c3ccncc3)n[nH]2)cc1` [Example 30, Methyl 4-((3-(pyridin-4-yl)-1H-1,2,4-triazol-5-yl)methylcarbamoyl)benzoate], the pIC50 in assay [1] and in assay [2] was over 5.30 each time. Regarding `O=C(O)c1ccc(C(=O)NCc2nc(-c3ccncc3)n[nH]2)cc1` [Example 31, 4-((3-(Pyridin-4-yl)-1H-1,2,4-triazol-5-yl)methylcarbamoyl)benzoic acid], the negative-log IC50 (pIC50) in assay [1] is under 5.30; in assay [2], over 5.30.

Regarding `Cc1c(Cl)ccc(S(=O)(=O)NCc2nc(-c3ccncc3)n[nH]2)c1O` [Example 32, 4-Chloro-2-hydroxy-3-methyl-N-((3-(pyridin-4-yl)-1H-1,2,4-triazol-5-yl)methyl)benzenesulfonamide], the pIC50 in assay [1] and in assay [2] was under 5.30 each time. Take `COc1ccc(NC(=O)NCc2nc(-c3ccncc3)n[nH]2)c(OC)c1` [Example 34, 1-(2,4-Dimethoxyphenyl)-3-((3-(pyridin-4-yl)-1H-1,2,4-triazol-5-yl)methyl)urea]: in assay [2], the negative logarithm of the IC50 (pIC50) was under 5.30. For `CC(C)(C)OC(=O)NC1CCN(C(=O)Cc2nc(-c3ccncc3)n[nH]2)C1` (stereo not drawn) [Example 60, tert-Butyl 1-(2-(3-(pyridin-4-yl)-1H-1,2,4-triazol-5-yl)acetyl)pyrrolidin-3-ylcarbamate], the negative logarithm of the IC50 (pIC50) in assay [2] is under 5.30. In the case of `NC1CCN(C(=O)Cc2nc(-c3ccncc3)n[nH]2)C1` (stereo not drawn) [Example 61, 1-(3-Aminopyrrolidin-1-yl)-2-(3-(pyridin-4-yl)-1H-1,2,4-triazol-5-yl)ethanone], the pIC50 in assay [2] was under 5.30. Regarding `O=C(Nc1cccc2c(-c3ccncc3)n[nH]c12)c1cccs1` [Example 68, N-(3-(Pyridin-4-yl)-1H-indazol-7-yl)thiophene-2-carboxamide], the pIC50 in assay [2] is under 5.30.

The values above are taken from patent US20080021217A1, “HETEROCYCLIC INHIBITORS OF RHO KINASE” (priority 2006, published 2008).
